Residues, ends and D or L forms follow the SMILES beside them.
Key:
HLA-B*27:05 = HLA-B*27:05 (Homo sapiens, UniProt P01889, D138H/D201E/E176V/E204Q/G107R/H137Y/K202T/N104T/N87E/Q56L/Q94K/R106L/R155S/R180L/S101D/S121N/S48T/Y140D/Y33H/Y91C); test: Peptide/HLA binding affinity assay; conditions: EC50 = peptide concentration at half saturation; HLA heavy chain refolded with varying peptide conc., 20–24 h, room temperature, ELISA 450 nm; <100 nM = high affinity
Excerpt: Plates were then developed using ELISA.

HLA-C*07:01 = HLA-C*07:01 (Homo sapiens, UniProt P10321, K90N/S123Y); test: biochemical
Method: (§1) The affinity of peptide/HLA binding was determined as described before ([21], [22]). Briefly, biotinylated HLA Class I heavy chains were denatured and diluted into refolding buffer containing β-mercaptoethanol and varying concentrations of the test/control peptides. The mixtures were incubated with agitation at room temperature for 20–24 hours to enable peptide/HLA complex formation. The solutions containing the complexes were transferred to streptavidin plates and incubated for 30 minutes. Plates were then developed using ELISA. Absorbance measured at 450 nm was graphed against the varying concentrations of the test peptide used. The affinity of peptide/HLA binding was determined by calculating the EC50, defined as the peptide concentration resulting in half saturation. Peptides with an EC50 under 100 nM were classified as high affinity binders.

HLA-B*35:01 = HLA-B*35:01 (Homo sapiens, UniProt P01889, A329T/A93T/A95T/C349S/D201E/D98Y/E176V/E187L/E204Q/E69T/I218V/K202T/L119I/Q94N/R155S/R180L/S121R/S35A/S48A/T118I/V127L/V306I/V36M/Y140S/Y91F); test: biochemical
Method: as §1

HLA-B*40:01 = HLA-B*40:01 (Homo sapiens, UniProt P01889, A65T/A93T/A95T/D138N/D98Y/E176V/E69K/N87E/Q56L/Q94N/R180L/S121R/S35A/S48T/T167S/V36M/W171L/Y33H/Y91S); test: biochemical
Method: as §1

HLA-A*02:01 = HLA-A*02:01 (Homo sapiens, UniProt P04439, D140Y/D185E/D98H/E176V/E277Q/G131W/G231S/I119V/I121R/I166T/I218V/L300P/L318F/N151K/N90K/P208A/P217A/Q86G/Q94H/R138H/R169H/T345S); test: biochemical
Method: as §1

HLA-C*03:03 = HLA-C*03:03 (Homo sapiens, UniProt P10321, A176E/A330V/A97T/C25G/C350S/D114A/D33Y/E197K/G115R/L119I/L127V/L171W/L218V/M285V/M309V/M331V/P208H/Q277E/Q291P/R243W/R45H/S123Y/S140Y/S297R/S48A/T118I/T187L/T329A/T363A/V319A); conditions: C*03:03 measured as substitute for C*03:04; EC50 = peptide concentration at half saturation; refolding 20–24 h, room temperature, ELISA 450 nm; <100 nM = high affinity
Method: as §1

HLA-A*68:01 = HLA-A*68:01 (Homo sapiens, UniProt P04439, A269V/D185E/E176V/E277Q/E87N/F33Y/G231S/I121M/I166T/I218V/L180W/L300P/L318F/N151K/P208A/P217A/Q86R/R169H/T345S); test: biochemical
Method: as §1

HLA-A*01:01 = HLA-A*01:01 (Homo sapiens, UniProt P04439, A114D/A174V/A182V/D101N/D185E/E176A/E190D/L180R/Q94H/R68K/S129P/T187R/V100A/V91M/W191G); test: biochemical
Method: as §1

[1] = system: AAV9 capsid-specific CD8 T cells in healthy donor PBMCs; test: Peptide deconvolution FluoroSpot, CD4-depleted PBMCs expanded with Class I MAPPs pool (IFN-γ); type: cell-based, human; conditions: for Total no. of responders: 24 healthy donors, CD4-depleted PBMCs expanded 10 days with Class I MAPPs pool, matrix pools 1 µg per peptide/mL, then individual peptide 2 µg/mL, ~24 h, positive = SI ≥1.4; for T cell response in tested donors / donors with the predicted binding allele (in words) / % response in donors with allele(s): CD4-depleted PBMCs expanded with Class I MAPPs pool; for T cell response in tested donors / donors with the predicted binding allele (in words): IFN-γ FluoroSpot; for % response in donors with allele(s): responders among cohort donors expressing the peptide's predicted HLA binding allele(s)
Method: For the identification of immunodominant CD8 T cell epitopes, the 41 HLA Class I MAPPs peptides were arranged in a matrix of 13 pools, each containing 6–7 peptides ( Supplementary Table 4 ). Per the matrix, each matrix pool was constructed by combining the peptides listed in each column or each row ([16]). Peptides present at the intersection of responding matrix pools were shortlisted and tested individually. All matrix pools were dissolved in 100% DMSO and tested at 1 µg per peptide/mL. For individual testing, peptides were dissolved in 100% DMSO and tested at 2 µg/mL. Matrix pools and individual peptides were synthesized by GenScript.
Frozen PBMCs were thawed and resuspended in AIM V+ 5% SR at 1X10^6 cells/mL. Cells were stimulated with test peptide pools (1 µg per peptide/mL) and expanded in vitro for 10 days as described previously ([17]). On Days 4 and 7, cells were supplemented with a cytokine cocktail containing IL-2 (R&D Systems, 10 units/mL), IL-7 (R&D Systems, 10 ng/mL), and IL-15 (PeproTech, 10 ng/mL). On Day 10, cells were harvested, washed, and restimulated on precoated IFN-γ FluoroSpot plates (MabTech) in triplicates (125,000 cells/well). Peptide pools (1 µg per peptide/mL) or individual peptides (2 µg/mL, for deconvolution studies) were used for restimulation. Anti-CD3 antibody (MabTech, 100 ng/mL) and DMSO were used as positive and negative controls respectively. Plates were incubated at 37 degrees Celsius for ~ 24 hours and processed as described in the previous section.
For experiments involving T cell depletion, CD4 T cells were depleted via magnetic separation using human CD4 Microbeads (Miltenyi Biotec) and an AutoMACS separator (Miltenyi Biotec) according to manufacturer’s instructions. Depleted cells were washed with MACS buffer prior to seeding on culture plates.
For FluoroSpot assays, results were expressed as Spot Forming Units (SFU), calculated as the spot count per million PBMCs. The Stimulation Index (SI) was calculated as the average SFU in test wells/average SFU in DMSO control wells. For assays with fresh PBMCs, an SI of 2 or higher with a minimum of 50 SFU was counted as a positive IFN-γ/TNF-α response. For assays with expanded PBMCs, an SI of 1.4 or higher was set as the cutoff for a positive IFN-γ response. Predicted HLA binding alleles for each peptide were determined using MHCMotifDecon 1.0 as previously described ([13], [14], [23]). Predicted binding affinities for identified epitopes were determined using NetMHC 4.0 ([24]). Data tables and heatmaps were created using Excel. Data analysis and graphical representations were performed on Graph Pad Prism 10.
To identify the immunodominant CD8 T cell epitopes within the HLA Class I MAPPs peptides, we utilized a system of matrix pools which facilitates rapid mapping of immunodominant epitopes when investigating a large number of peptides. The 41 HLA Class I MAPPs peptides were arranged into 13 matrix pools (MPs), each containing 6–7 peptides ( Supplementary Table 4 ). The matrix arrangement allows each Class I peptide to feature in two MPs, and a restimulation response to both MPs containing a specific peptide identifies putative immunodominant peptides that can be verified on an individual basis. Peptide deconvolution was performed on a cohort of 24 healthy donors. PBMCs were depleted of CD4 T cells and expanded as described before with the Class I MAPPs pool (41 peptides). Expanded PBMCs were restimulated on FluoroSpot assays with the 13 MPs.

## CC(C)[C@H](NC(=O)[C@H](C)NC(=O)[C@H](CCCNC(=N)N)NC(=O)CN)C(=O)N[C@@H](Cc1ccccc1)C(=O)N[C@@H](CCC(N)=O)C(=O)N[C@@H](C)C(=O)N[C@@H](CCCCN)C(=O)N[C@@H](CCCCN)C(=O)O [Peptide 5] (H-GRAVFQAKK-OH)
HLA-B*27:05
  EC50: 83.9 nM

## CC(C)C[C@H](NC(=O)[C@H](C)NC(=O)[C@H](Cc1c[nH]c2ccccc12)NC(=O)[C@@H](NC(=O)[C@H](CCCNC(=N)N)NC(=O)[C@@H](N)[C@@H](C)O)[C@@H](C)O)C(=O)N1CCC[C@H]1C(=O)N[C@H](C(=O)N[C@@H](Cc1ccc(O)cc1)C(=O)O)[C@@H](C)O [Peptide 10] (H-TRTWALPTY-OH)
HLA-B*27:05
  EC50: 120 nM
HLA-C*07:01
  EC50: > 10000 nM

## CC(C)C[C@H](NC(=O)[C@H](Cc1c[nH]cn1)NC(=O)[C@H](CC(N)=O)NC(=O)[C@H](CC(N)=O)NC(=O)[C@H](Cc1ccc(O)cc1)NC(=O)[C@@H](NC(=O)[C@@H]1CCCN1C(=O)[C@@H](N)CC(C)C)[C@@H](C)O)C(=O)N[C@@H](Cc1ccc(O)cc1)C(=O)O [Peptide 11] (H-LPTYNNHLY-OH)
HLA-B*35:01
  EC50: 96.7 nM

## CSCC[C@H](NC(=O)[C@H](CCC(N)=O)NC(=O)[C@H](CO)NC(=O)[C@@H]1CCCN1C(=O)[C@H](Cc1ccccc1)NC(=O)[C@H](Cc1ccc(O)cc1)NC(=O)[C@H](CCC(=O)O)NC(=O)[C@@H](N)CC(C)C)C(=O)N[C@@H](CC(C)C)C(=O)O [Peptide 19] (H-LEYFPSQML-OH)
HLA-B*40:01
  EC50: 0.1 nM

## CC(C)C[C@H](N)C(=O)N[C@@H](CCCNC(=N)N)C(=O)N[C@H](C(=O)NCC(=O)N[C@@H](CC(N)=O)C(=O)N[C@@H](CC(N)=O)C(=O)N[C@@H](Cc1ccccc1)C(=O)N[C@@H](CCC(N)=O)C(=O)N[C@@H](Cc1ccccc1)C(=O)O)[C@@H](C)O [Peptide 20] (H-LRTGNNFQF-OH)
HLA-B*27:05
  EC50: 122 nM

## CC(C)[C@H](NC(=O)[C@H](CC(N)=O)NC(=O)[C@H](CCC(=O)O)NC(=O)[C@H](Cc1ccccc1)NC(=O)[C@H](CCC(=O)O)NC(=O)[C@H](Cc1ccc(O)cc1)NC(=O)[C@H](CO)NC(=O)[C@H](Cc1ccccc1)NC(=O)[C@H](CCC(N)=O)NC(=O)[C@@H](N)Cc1ccccc1)C(=O)O [Peptide 21] (H-FQFSYEFENV-OH)
HLA-A*02:01
  EC50: 0.6 nM

## CC[C@H](C)[C@H](NC(=O)[C@@H](N)CC(C)C)C(=O)N[C@@H](CC(=O)O)C(=O)N[C@@H](CCC(N)=O)C(=O)N[C@@H](Cc1ccc(O)cc1)C(=O)N[C@@H](CC(C)C)C(=O)N[C@@H](Cc1ccc(O)cc1)C(=O)N[C@@H](Cc1ccc(O)cc1)C(=O)N[C@@H](CC(C)C)C(=O)O [Peptide 24] (H-LIDQYLYYL-OH)
HLA-A*02:01
  EC50: 0.6 nM

## CSCC[C@H](NC(=O)[C@H](CC(N)=O)NC(=O)[C@H](CO)NC(=O)[C@@H]1CCCN1C(=O)CNC(=O)[C@H](C)NC(=O)[C@@H](NC(=O)[C@@H](N)CO)C(C)C)C(=O)N[C@@H](C)C(=O)N[C@H](C(=O)N[C@@H](CCC(N)=O)C(=O)NCC(=O)N[C@@H](CCCNC(=N)N)C(=O)O)C(C)C [Peptide 26] (H-SVAGPSNMAVQGR-OH)
HLA-C*03:03
  Binding affinity (nM), C*03:03: Non-binder
HLA-A*68:01
  EC50: 1.9 nM

## CSCC[C@H](NC(=O)[C@H](CC(N)=O)NC(=O)[C@H](CO)NC(=O)[C@@H]1CCCN1C(=O)CNC(=O)[C@H](C)NC(=O)[C@@H](N)C(C)C)C(=O)N[C@@H](C)C(=O)N[C@H](C(=O)O)C(C)C [Peptide 27] (H-VAGPSNMAV-OH)
HLA-A*68:01; EC50 = peptide concentration at half saturation, HLA heavy chain refolded with varying peptide conc., 20–24 h, room temperature, ELISA 450 nm, <100 nM = high affinity
  Binding affinity (nM), A*68:01: Non-binder

## CC[C@H](C)[C@H](NC(=O)[C@@H]1CCCN1C(=O)[C@H](CCCNC(=N)N)NC(=O)[C@@H]1CCCN1C(=O)[C@H](CCC(=O)O)NC(=O)[C@H](CO)NC(=O)[C@@H](N)Cc1ccc(O)cc1)C(=O)NCC(=O)N[C@H](C(=O)N[C@@H](CCCNC(=N)N)C(=O)N[C@@H](Cc1ccc(O)cc1)C(=O)O)[C@@H](C)O [Peptide 41] (H-YSEPRPIGTRY-OH)
HLA-A*01:01
  EC50: 16.3 nM

## QPAKKRLNF [Peptide 7, predicted allele B*07:02]
[1]; IFN-γ
  Total no. of responders: 0
[1]
  T cell response in tested donors / donors with the predicted binding allele (in words): did not elicit a response
[1]; IFN-γ, SI ≥1.4
  % response in donors with allele(s): 0/6 (0%)

## SQAVGRSSF [Peptide 17, predicted allele B*15:01]
[1]; IFN-γ
  Total no. of responders: 0
[1]
  T cell response in tested donors / donors with the predicted binding allele (in words): did not elicit a response
[1]; IFN-γ, SI ≥1.4
  % response in donors with allele(s): 0/2 (0%)

## TDSDYQLPYVL [Peptide 13]
[1]
  T cell response in tested donors / donors with the predicted binding allele (in words): elicited a T cell response
[1]; peptide deconvolution in 24 healthy donors, '-' = no responding donor, IFN-γ, SI ≥1.4
  Responding donors: Donor # 442

Reference: PMC12371361 (Frontiers in Immunology, 2025)
